Measurements taken from ChEMBL document CHEMBL3763146 (J Med Chem, 2016).

Tests used:
[1] = target: Beta-2 adrenergic receptor (Homo sapiens, UniProt P07550)
Description: Displacement of [125]I-cyanopindolol from human recombinant beta2 adrenergic receptor after 1 hr by scintillation counting method

[2] = Fraction unbound in dog at 0.5 mg/kg, iv or 2 mg/kg, po; type: ADME, organism-based, Canis lupus familiaris; conditions: in vivo
[3] = Solubility of the compound in simulated gastric fluid; type: ADME
[4] = target: Sodium-dependent serotonin transporter (Homo sapiens, UniProt P31645); experiment: Inhibition of human SERT expressed in HEK293 cells preincubated for 30 mins followed by fluorescent substrate addition measured after 30 mins by plate reader analysis; type: cell-based
[5] = Drug recovery in bile duct cannulated rat feces at 5 mg/kg, iv measured over 48 hrs; type: ADME, organism-based; conditions: faeces, read-out: Drug recovery
[6] = target: Beta-3 adrenergic receptor (Macaca mulatta) (UniProt Q28524); experiment: Agonist activity at rhesus monkey beta3 adrenergic receptor expressed in CHO cells assessed as accumulation of cAMP after 30 mins by TR-FRET assay in presence of 40% serum relative to (R)-(-)-isoproterenol; type: functional, cell-based
Sequence of Beta-3 adrenergic receptor (Macaca mulatta) (Q28524 whole entry): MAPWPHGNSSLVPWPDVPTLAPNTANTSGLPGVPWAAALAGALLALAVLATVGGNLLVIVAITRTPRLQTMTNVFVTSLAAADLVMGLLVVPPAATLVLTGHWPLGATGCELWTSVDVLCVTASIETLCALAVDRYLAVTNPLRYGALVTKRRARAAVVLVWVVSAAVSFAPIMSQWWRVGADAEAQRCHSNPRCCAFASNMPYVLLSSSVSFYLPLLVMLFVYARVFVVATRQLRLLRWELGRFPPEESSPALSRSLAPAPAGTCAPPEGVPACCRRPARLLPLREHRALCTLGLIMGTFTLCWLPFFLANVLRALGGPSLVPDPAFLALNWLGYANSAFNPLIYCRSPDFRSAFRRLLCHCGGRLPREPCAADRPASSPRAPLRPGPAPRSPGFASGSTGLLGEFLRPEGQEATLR

Cytochrome P450 3A4 [7] = target: T1, Cytochrome P450 3A4 (Homo sapiens, UniProt P08684); experiment: Induction of CYP3A4 activity in human hepatocytes up to 10 uM; type: ADME, cell-based, Hepatocyte
T1 sequence (P08684 whole entry): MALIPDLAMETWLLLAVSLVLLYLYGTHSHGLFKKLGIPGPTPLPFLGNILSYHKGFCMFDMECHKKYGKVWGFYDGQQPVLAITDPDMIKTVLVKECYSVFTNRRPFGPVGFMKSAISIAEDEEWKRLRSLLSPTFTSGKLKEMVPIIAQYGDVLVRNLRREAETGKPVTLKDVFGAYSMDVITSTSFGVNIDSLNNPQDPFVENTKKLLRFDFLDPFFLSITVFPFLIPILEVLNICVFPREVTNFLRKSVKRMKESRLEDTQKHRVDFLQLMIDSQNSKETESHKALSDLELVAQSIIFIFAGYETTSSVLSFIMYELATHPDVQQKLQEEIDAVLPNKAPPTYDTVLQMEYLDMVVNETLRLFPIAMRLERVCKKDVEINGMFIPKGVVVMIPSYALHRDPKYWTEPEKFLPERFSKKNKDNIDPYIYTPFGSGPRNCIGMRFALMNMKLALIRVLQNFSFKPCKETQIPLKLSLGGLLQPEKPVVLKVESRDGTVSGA

[8] = Drug recovery in bile duct cannulated rat at 5 mg/kg, iv measured over 48 hrs; type: ADME, organism-based; conditions: in vivo, read-out: Drug recovery
[9] = target: Beta-3 adrenergic receptor (Homo sapiens, UniProt P13945); experiment: Agonist activity at human adrenergic beta3 receptor expressed in CHO cells assessed as accumulation of cAMP after 30 mins by TR-FRET assay in presence of 40% serum; type: functional, cell-based
Sequence of Beta-3 adrenergic receptor (Homo sapiens, UniProt P13945) (P13945 whole entry): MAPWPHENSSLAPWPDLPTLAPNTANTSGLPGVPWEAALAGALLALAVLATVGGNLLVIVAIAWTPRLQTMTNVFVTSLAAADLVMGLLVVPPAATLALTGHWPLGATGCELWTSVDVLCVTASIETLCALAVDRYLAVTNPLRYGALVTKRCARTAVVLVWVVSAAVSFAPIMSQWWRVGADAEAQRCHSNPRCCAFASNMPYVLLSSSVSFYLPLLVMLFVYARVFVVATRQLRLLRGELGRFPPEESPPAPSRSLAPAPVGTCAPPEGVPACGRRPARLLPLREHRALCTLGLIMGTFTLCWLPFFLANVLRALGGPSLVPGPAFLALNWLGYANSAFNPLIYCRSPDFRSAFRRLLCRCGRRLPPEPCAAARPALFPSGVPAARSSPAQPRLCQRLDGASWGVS

[10] = Fraction unbound in rat at 1 mg/kg, iv or 2 mg/kg, po; type: ADME, organism-based; conditions: in vivo
Canis familiaris = experiment: Unbound clearance in dog at 0.5 mg/kg, iv or 2 mg/kg, po; type: ADME, organism-based, Canis lupus familiaris; conditions: in vivo
[11] = Stability in dog plasma assessed as parent compound remaining at 24 hrs by LC-MS analysis; type: ADME, cell-free, Canis lupus familiaris; conditions: read-out: Stability
Rattus norvegicus [12] = organism: Rattus norvegicus; experiment: Toxicity in Sprague-Dawley rat assessed as postmortem parameters measured up to 6 months; type: organism-based; conditions: in vivo
[13] = Plasma clearance in cynomolgus monkey at 0.5 mg/kg, iv or 2 mg/kg, po; type: ADME, organism-based, Macaca fascicularis
Rhesus monkey = experiment: Dose normalized fAUC in rhesus monkey at 2 mg/kg, po; type: ADME, organism-based, Macaca mulatta; conditions: in vivo
Cynomolgus monkey = experiment: Toxicity in cynomolgus monkey assessed as effect on electrocadiograms measured up to 9 months; type: organism-based, Macaca fascicularis; conditions: in vivo
Rattus norvegicus [14] = organism: Rattus norvegicus; experiment: Toxicity in Sprague-Dawley rat assessed as antemortem parameters measured up to 6 months; type: organism-based; conditions: in vivo
[15] = target: Voltage-gated inwardly rectifying potassium channel KCNH2 (Homo sapiens, UniProt Q12809); experiment: Binding affinity to human ERG channel
Sequence of Voltage-gated inwardly rectifying potassium channel KCNH2 (Q12809 whole entry): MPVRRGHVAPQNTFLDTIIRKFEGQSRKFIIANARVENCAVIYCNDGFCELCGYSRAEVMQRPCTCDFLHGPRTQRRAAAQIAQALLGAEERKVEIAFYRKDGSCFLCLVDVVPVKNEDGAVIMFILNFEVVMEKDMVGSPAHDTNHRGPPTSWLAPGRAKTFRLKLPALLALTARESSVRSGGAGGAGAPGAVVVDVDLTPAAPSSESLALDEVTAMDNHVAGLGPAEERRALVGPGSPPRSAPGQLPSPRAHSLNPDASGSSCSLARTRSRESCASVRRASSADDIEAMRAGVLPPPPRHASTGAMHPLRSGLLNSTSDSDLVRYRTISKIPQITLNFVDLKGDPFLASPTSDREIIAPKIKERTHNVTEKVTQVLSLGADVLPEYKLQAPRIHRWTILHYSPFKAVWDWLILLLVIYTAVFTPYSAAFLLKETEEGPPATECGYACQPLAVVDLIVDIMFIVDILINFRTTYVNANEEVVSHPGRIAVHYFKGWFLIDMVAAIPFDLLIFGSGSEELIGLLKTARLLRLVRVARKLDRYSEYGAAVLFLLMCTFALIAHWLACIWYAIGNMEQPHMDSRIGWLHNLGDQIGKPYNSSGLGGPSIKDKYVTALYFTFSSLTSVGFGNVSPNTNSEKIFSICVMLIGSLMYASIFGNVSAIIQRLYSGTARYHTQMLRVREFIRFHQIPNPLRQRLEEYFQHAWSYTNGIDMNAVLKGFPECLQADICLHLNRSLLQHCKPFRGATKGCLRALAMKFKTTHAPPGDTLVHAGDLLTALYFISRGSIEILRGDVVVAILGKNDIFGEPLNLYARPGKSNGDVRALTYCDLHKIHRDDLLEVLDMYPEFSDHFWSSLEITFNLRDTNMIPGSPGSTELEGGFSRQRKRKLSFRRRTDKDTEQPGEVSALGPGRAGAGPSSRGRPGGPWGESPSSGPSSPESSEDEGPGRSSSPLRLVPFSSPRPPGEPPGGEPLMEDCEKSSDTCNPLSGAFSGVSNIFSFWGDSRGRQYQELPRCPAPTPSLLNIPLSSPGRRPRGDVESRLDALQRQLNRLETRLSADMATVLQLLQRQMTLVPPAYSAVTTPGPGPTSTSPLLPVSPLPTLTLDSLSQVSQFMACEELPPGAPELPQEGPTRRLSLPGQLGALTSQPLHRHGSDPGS

[16] = Fraction unbound in rhesus monkey at 0.5 mg/kg, iv or 2 mg/kg, po; type: ADME, organism-based, Macaca mulatta; conditions: in vivo
[17] = target: Beta-3 adrenergic receptor (Macaca mulatta) (UniProt Q28524); experiment: Agonist activity at rhesus monkey beta3 adrenergic receptor expressed in CHO cells assessed as accumulation of cAMP after 30 mins by TR-FRET assay relative to (R)-(-)-isoproterenol; type: functional, cell-based
[18] = Stability in rhesus monkey plasma assessed as parent compound remaining at 24 hrs by LC-MS analysis; type: ADME, cell-free, Macaca mulatta; conditions: read-out: Stability
[19] = Drug recovery in bile duct cannulated rat bile at 5 mg/kg, iv measured over 48 hrs; type: ADME, organism-based; conditions: read-out: Drug recovery
Rattus norvegicus [20] = experiment: Increase in detrusor muscle relaxation in iv infused Sprague-Dawley rat acetic acid-induced bladder hyperreflexia model assessed as increase in functional bladder capacity measured over 30 to 45 mins; type: organism-based
[21] = Intrinsic clearance in dog liver microsomes; type: ADME, Canis lupus familiaris; conditions: read-out: CLH
[22] = target: T2, Beta-3 adrenergic receptor (Macaca mulatta, UniProt Q28524); experiment: Agonist activity at rhesus monkey beta3 adrenergic receptor expressed in CHO cells assessed as accumulation of cAMP after 30 mins by TR-FRET assay; type: functional, cell-based
T2 sequence (Q28524 whole entry): as the sequence (Q28524 whole entry) above

[23] = Plasma clearance in rhesus monkey at 0.5 mg/kg, iv or 2 mg/kg, po; type: ADME, organism-based, Macaca mulatta
Rattus norvegicus [24] = experiment: Increase in detrusor muscle relaxation in iv infused Sprague-Dawley rat acetic acid-induced bladder hyperreflexia model assessed as decrease in micturition pressure measured over 30 to 45 mins; type: functional, organism-based
[25] = Solubility of the compound in fasted-simulated intestinal fluid; type: ADME; conditions: fasted-state simulated intestinal fluid
[26] = target: Nuclear receptor subfamily 1 group I member 2 (Homo sapiens, UniProt O75469); experiment: Activation of human PX receptor
[27] = Half life in rhesus monkey at 0.5 mg/kg, iv or 2 mg/kg, po; type: ADME, organism-based, Macaca mulatta; conditions: in vivo
[28] = target: Beta-3 adrenergic receptor (Canis lupus familiaris, UniProt O02662); experiment: Agonist activity at dog beta3 adrenergic receptor expressed in CHO cells assessed as accumulation of cAMP after 30 mins by TR-FRET assay; type: functional, cell-based
[29] = Drug recovery in bile duct cannulated rat feces at 10 mg/kg, po measured over 48 hrs; type: ADME, organism-based; conditions: faeces, read-out: Drug recovery
[30] = Oral bioavailability in cynomolgus monkey at 2 mg/kg; type: ADME, organism-based, Macaca fascicularis; conditions: in vivo
Cytochrome P450 1A2 = Cytochrome P450 1A2 (Homo sapiens, UniProt P05177); experiment: Inhibition of CYP1A2 in human liver microsomes; type: ADME
[31] = Half life in cynomolgus monkey at 0.5 mg/kg, iv or 2 mg/kg, po; type: ADME, organism-based, Macaca fascicularis; conditions: in vivo
[32] = target: T2, Beta-3 adrenergic receptor; experiment: Agonist activity at rhesus monkey beta3 adrenergic receptor expressed in CHO cells assessed as accumulation of cAMP after 30 mins by TR-FRET assay in presence of 40% serum; type: functional, cell-based
[33] = Oral bioavailability in rhesus monkey at 2 mg/kg; type: ADME, organism-based, Macaca mulatta; conditions: in vivo
Cytochrome P450 2B6 = Cytochrome P450 2B6 (Homo sapiens, UniProt P20813); experiment: Inhibition of CYP2B6 in human liver microsomes; type: ADME
Cytochrome P450 2D6 = Cytochrome P450 2D6 (Homo sapiens, UniProt P10635); experiment: Inhibition of CYP2D6 in human liver microsomes assessed as dextraomethorphan O-demethylation; type: ADME
Cytochrome P450 3A4 [34] = target: T1, Cytochrome P450 3A4; experiment: Inhibition of CYP3A4 in human liver microsomes assessed as testosterone 6beta-hydroxylation; type: ADME
MDR1 (human) = experiment: Apparent permeability of the compound in pig LLC-PK1 cells expressing human MDR1 at 5 uM measured at 3 hrs by LC/MS/MS analysis; type: ADME, cell-based, Sus scrofa
[35] = Drug recovery in bile duct cannulated rat urine at 10 mg/kg, po measured over 48 hrs; type: ADME, organism-based; conditions: read-out: Drug recovery
[36] = Fraction unbound in cynomolgus monkey at 0.5 mg/kg, iv or 2 mg/kg, po; type: ADME, organism-based, Macaca fascicularis; conditions: in vivo
Cytochrome P450 2C19 = Cytochrome P450 2C19 (Homo sapiens, UniProt P33261); experiment: Inhibition of CYP2C19 in human liver microsomes; type: ADME
[37] = target: Voltage-dependent L-type calcium channel subunit alpha-1C (Homo sapiens, UniProt Q13936); experiment: Displacement of [3H]-diltiazem from human Cav1.2 channel
Sequence of Voltage-dependent L-type calcium channel subunit alpha-1C (Q13936 whole entry): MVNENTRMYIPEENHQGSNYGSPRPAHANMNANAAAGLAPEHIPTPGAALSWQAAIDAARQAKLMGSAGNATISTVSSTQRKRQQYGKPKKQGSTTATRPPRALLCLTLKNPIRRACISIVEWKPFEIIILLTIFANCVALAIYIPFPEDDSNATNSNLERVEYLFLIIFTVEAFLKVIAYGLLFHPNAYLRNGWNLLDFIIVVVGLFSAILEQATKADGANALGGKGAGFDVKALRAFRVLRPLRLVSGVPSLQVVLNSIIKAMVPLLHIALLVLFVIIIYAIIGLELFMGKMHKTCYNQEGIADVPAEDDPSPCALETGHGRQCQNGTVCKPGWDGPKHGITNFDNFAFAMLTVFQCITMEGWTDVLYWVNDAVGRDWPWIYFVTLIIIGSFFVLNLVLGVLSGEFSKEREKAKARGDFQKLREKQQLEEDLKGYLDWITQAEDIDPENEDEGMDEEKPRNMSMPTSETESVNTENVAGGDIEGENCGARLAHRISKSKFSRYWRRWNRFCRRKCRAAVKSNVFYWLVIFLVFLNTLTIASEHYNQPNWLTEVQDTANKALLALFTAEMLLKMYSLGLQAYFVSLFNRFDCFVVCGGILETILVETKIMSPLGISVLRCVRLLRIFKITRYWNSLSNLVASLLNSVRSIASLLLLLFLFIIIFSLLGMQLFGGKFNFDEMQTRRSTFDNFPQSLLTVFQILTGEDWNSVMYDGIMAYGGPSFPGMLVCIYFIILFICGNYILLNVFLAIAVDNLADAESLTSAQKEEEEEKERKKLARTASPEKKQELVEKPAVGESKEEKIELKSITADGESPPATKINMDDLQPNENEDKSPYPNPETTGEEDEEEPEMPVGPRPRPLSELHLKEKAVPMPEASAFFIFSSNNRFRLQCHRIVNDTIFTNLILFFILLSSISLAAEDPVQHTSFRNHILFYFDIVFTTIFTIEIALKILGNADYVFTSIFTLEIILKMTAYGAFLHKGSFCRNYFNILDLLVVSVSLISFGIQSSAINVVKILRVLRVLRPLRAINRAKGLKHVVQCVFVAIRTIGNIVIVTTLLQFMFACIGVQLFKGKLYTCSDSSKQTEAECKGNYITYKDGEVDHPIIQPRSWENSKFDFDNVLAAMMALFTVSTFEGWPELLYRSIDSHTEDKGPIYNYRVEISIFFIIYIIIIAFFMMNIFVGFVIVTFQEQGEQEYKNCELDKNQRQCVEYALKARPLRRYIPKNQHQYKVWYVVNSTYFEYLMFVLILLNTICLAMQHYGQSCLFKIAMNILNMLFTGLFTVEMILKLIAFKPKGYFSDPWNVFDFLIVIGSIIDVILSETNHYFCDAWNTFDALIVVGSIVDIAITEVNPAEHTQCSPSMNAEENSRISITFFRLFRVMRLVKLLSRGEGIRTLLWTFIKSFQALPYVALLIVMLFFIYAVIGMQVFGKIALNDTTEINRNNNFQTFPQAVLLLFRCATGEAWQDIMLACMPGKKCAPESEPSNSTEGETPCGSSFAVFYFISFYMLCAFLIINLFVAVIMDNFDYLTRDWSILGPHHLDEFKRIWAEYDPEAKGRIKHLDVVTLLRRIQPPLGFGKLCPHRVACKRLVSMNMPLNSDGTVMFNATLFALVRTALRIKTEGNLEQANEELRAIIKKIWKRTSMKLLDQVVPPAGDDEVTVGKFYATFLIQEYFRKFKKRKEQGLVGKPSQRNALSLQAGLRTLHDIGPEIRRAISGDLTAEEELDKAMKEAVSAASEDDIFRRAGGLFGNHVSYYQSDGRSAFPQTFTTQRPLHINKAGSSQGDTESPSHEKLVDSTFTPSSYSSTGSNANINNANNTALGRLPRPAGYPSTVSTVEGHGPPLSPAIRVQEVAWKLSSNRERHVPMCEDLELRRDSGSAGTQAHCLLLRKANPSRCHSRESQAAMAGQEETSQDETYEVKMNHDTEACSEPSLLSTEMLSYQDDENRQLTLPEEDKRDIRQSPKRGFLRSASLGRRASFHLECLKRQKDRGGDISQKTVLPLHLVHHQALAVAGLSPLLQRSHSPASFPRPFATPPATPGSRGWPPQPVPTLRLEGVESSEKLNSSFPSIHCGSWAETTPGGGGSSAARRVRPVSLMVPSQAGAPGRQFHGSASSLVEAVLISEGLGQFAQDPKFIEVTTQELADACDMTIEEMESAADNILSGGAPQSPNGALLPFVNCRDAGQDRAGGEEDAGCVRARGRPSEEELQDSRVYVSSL

[38] = Drug recovery in bile duct cannulated rat urine at 5 mg/kg, iv measured over 48 hrs; type: ADME, organism-based; conditions: read-out: Drug recovery
[39] = target: Beta-1 adrenergic receptor (Homo sapiens, UniProt P08588)
Description: Displacement of [125]I-cyanopindolol from recombinant human beta1 adrenergic receptor after 1 hr by scintillation counting method

[40] = Solubility of the compound in fed-simulated intestinal fluid; type: ADME; conditions: fed-state simulated intestinal fluid

Structure (SMILES): O=C(Nc1ccc(C[C@@H]2CC[C@H]([C@H](O)c3ccccc3)N2)cc1)[C@@H]1CCc2nccc(=O)n21 [VIBEGRON]
- IC50 [1]: > 20 µM
- fraction unbound [2]: 0.41
- solubility [3]: > 4000 µg/mL
- IC50 [4]: > 10 µM
- dose excreted at 48 h [5]: 13%
- max activation [6]: 103%
- Activity (Cytochrome P450 3A4 [7]): Not Active
- dose excreted at 48 h [8]: 83%
- EC50 [9]: 0.0016 µM
- fraction unbound [10]: 0.21
- CL free (Canis familiaris): 37 mL/min/kg
- remaining at 24 h [11]: 100%
- Activity (Rattus norvegicus [12]): Non-toxic
- clearance [13]: 20 mL/min/kg
- fAUC/dose (Rhesus monkey): 260 nM·h/mg/kg
- Activity (Cynomolgus monkey): Non-toxic
- Activity (Rattus norvegicus [14]): Non-toxic
- IC50 [15]: > 30 µM
- fraction unbound [16]: 0.49
- max activation [17]: 87%
- remaining at 24 h [18]: 93%
- dose excreted at 48 h [19]: 33%
- Activity (Rattus norvegicus [20]): Dose-dependent effect
- CLint scaled [21]: 13 mL/min/kg
- EC50 [22]: 0.00057 µM
- clearance [23]: 16 mL/min/kg
- Activity (Rattus norvegicus [24]): Dose-dependent effect
- solubility [25]: > 4000 µg/mL
- EC50 [26]: > 30 µM
- half-life [27]: 14 h
- EC50 [28]: 0.011 µM
- dose excreted at 48 h [29]: 19%
- bioavailability [30]: 46%
- IC50 (Cytochrome P450 1A2): > 100 µM
- half-life [31]: 7 h
- EC50 [32]: 0.0071 µM
- bioavailability [33]: 23%
- IC50 (Cytochrome P450 2B6): > 100 µM
- IC50 (Cytochrome P450 2D6): > 100 µM
- IC50 (Cytochrome P450 3A4 [34]): > 100 µM
- Papp at 3 h, 5 µM (MDR1 (human)): 2.4 ×10⁻⁶ cm/s
- dose excreted at 48 h [35]: 32%
- fraction unbound [36]: 0.58
- IC50 (Cytochrome P450 2C19): > 100 µM
- IC50 [37]: > 30 µM
- dose excreted at 48 h [38]: 37%
- IC50 [39]: > 20 µM
- solubility [40]: > 4000 µg/mL
